{"source": "PubChem BioAssay (NCI)", "assay_in_all_cases": "NCI-60 cell line screen, 48 h", "key": {"IGROV1 ovarian": {"tested_on": "IGROV1 ovarian"}, "M14 melanoma": {"tested_on": "M14 melanoma"}, "SK-OV-3 ovarian": {"tested_on": "SK-OV-3 ovarian"}, "UO-31 renal": {"tested_on": "UO-31 renal"}, "LOX IMVI melanoma": {"tested_on": "LOX IMVI melanoma"}, "OVCAR-4 ovarian": {"tested_on": "OVCAR-4 ovarian"}, "TK-10 renal": {"tested_on": "TK-10 renal"}, "NCI-H460 lung": {"tested_on": "NCI-H460 lung"}, "SNB-19 CNS": {"tested_on": "SNB-19 CNS"}, "786-0 renal": {"tested_on": "786-0 renal"}, "U251 CNS": {"tested_on": "U251 CNS"}, "A549 NSCLC": {"tested_on": "A549 NSCLC"}, "BT-549 breast": {"tested_on": "BT-549 breast"}, "EKVX NSCLC": {"tested_on": "EKVX NSCLC"}, "UACC-62 melanoma": {"tested_on": "UACC-62 melanoma"}, "T-47D breast": {"tested_on": "T-47D breast"}, "SK-MEL-28 melanoma": {"tested_on": "SK-MEL-28 melanoma"}, "DU-145 prostate": {"tested_on": "DU-145 prostate"}, "SN12C renal": {"tested_on": "SN12C renal"}, "HCT-116 colon": {"tested_on": "HCT-116 colon"}, "KM12 colon": {"tested_on": "KM12 colon"}, "SK-MEL-2 melanoma": {"tested_on": "SK-MEL-2 melanoma"}, "UACC-257 melanoma": {"tested_on": "UACC-257 melanoma"}, "NCI-H23 lung": {"tested_on": "NCI-H23 lung"}, "OVCAR-5 ovarian": {"tested_on": "OVCAR-5 ovarian"}, "HCC-2998 colon": {"tested_on": "HCC-2998 colon"}, "SF-295 CNS": {"tested_on": "SF-295 CNS"}, "SF-268 CNS": {"tested_on": "SF-268 CNS"}, "NCI-H522 lung": {"tested_on": "NCI-H522 lung"}, "OVCAR-3 ovarian": {"tested_on": "OVCAR-3 ovarian"}, "MDA-N": {"tested_on": "MDA-N"}, "SNB-75 CNS": {"tested_on": "SNB-75 CNS"}, "HOP-92 NSCLC": {"tested_on": "HOP-92 NSCLC"}, "CAKI-1 renal": {"tested_on": "CAKI-1 renal"}, "HS 578T breast": {"tested_on": "HS 578T breast"}, "HT29 colon": {"tested_on": "HT29 colon"}, "MALME-3M melanoma": {"tested_on": "MALME-3M melanoma"}, "HCT-15 colon": {"tested_on": "HCT-15 colon"}, "PC-3 prostate": {"tested_on": "PC-3 prostate"}, "MCF7 breast": {"tested_on": "MCF7 breast"}, "HL-60(TB) leukemia": {"tested_on": "HL-60(TB) leukemia"}, "MDA-MB-435": {"tested_on": "MDA-MB-435"}, "NCI-H226 lung": {"tested_on": "NCI-H226 lung"}, "SK-MEL-5 melanoma": {"tested_on": "SK-MEL-5 melanoma"}, "HOP-62 NSCLC": {"tested_on": "HOP-62 NSCLC"}, "OVCAR-8 ovarian": {"tested_on": "OVCAR-8 ovarian"}, "A498 renal": {"tested_on": "A498 renal"}, "RPMI-8226 leukemia": {"tested_on": "RPMI-8226 leukemia"}, "MDA-MB-231 breast": {"tested_on": "MDA-MB-231 breast"}, "NCI/ADR-RES ovarian": {"tested_on": "NCI/ADR-RES ovarian"}, "ACHN renal": {"tested_on": "ACHN renal"}, "COLO 205 colon": {"tested_on": "COLO 205 colon"}, "K-562 leukemia": {"tested_on": "K-562 leukemia"}}, "note": "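Exposure lasted 48 hours, with cells grown in 96-well plates and compounds tested at five concentrations. At the TGI there is no net growth.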", "data": [{"smiles": "COc1ccc2c(c1)c(=O)c1c(NCCN(C)C)ccc3c(=O)n(CCN(C)C)c(=O)n2c31", "values": [{"measurement": "TGI", "setting": "IGROV1 ovarian", "result": 1200, "unit": "nM"}, {"measurement": "TGI", "setting": "M14 melanoma", "result": 835, "unit": "nM"}, {"measurement": "TGI", "setting": "SK-OV-3 ovarian", "result": 11900, "unit": "nM"}, {"measurement": "TGI", "setting": "UO-31 renal", "result": 1030, "unit": "nM"}, {"measurement": "TGI", "setting": "LOX IMVI melanoma", "result": 1220, "unit": "nM"}, {"measurement": "TGI", "setting": "OVCAR-4 ovarian", "result": 1700, "unit": "nM"}, {"measurement": "TGI", "setting": "TK-10 renal", "result": 3450, "unit": "nM"}, {"measurement": "TGI", "setting": "NCI-H460 lung", "result": 1460, "unit": "nM"}, {"measurement": "TGI", "setting": "SNB-19 CNS", "result": 4300, "unit": "nM"}, {"measurement": "TGI", "setting": "786-0 renal", "result": 870, "unit": "nM"}, {"measurement": "TGI", "setting": "U251 CNS", "result": 2290, "unit": "nM"}, {"measurement": "TGI", "setting": "A549 NSCLC", "result": 10200, "unit": "nM"}, {"measurement": "TGI", "setting": "BT-549 breast", "result": 3220, "unit": "nM"}, {"measurement": "TGI", "setting": "EKVX NSCLC", "result": 1310, "unit": "nM"}, {"measurement": "TGI", "setting": "UACC-62 melanoma", "result": 984, "unit": "nM"}, {"measurement": "TGI", "setting": "T-47D breast", "result": 5770, "unit": "nM"}, {"measurement": "TGI", "setting": "SK-MEL-28 melanoma", "result": 3710, "unit": "nM"}, {"measurement": "TGI", "setting": "DU-145 prostate", "result": 1230, "unit": "nM"}, {"measurement": "TGI", "setting": "SN12C renal", "result": 594, "unit": "nM"}, {"measurement": "TGI", "setting": "HCT-116 colon", "result": 1060, "unit": "nM"}, {"measurement": "TGI", "setting": "KM12 colon", "result": 659, "unit": "nM"}, {"measurement": "TGI", "setting": "SK-MEL-2 melanoma", "result": 415, "unit": "nM"}, {"measurement": "TGI", "setting": "UACC-257 melanoma", "result": 804, "unit": "nM"}, {"measurement": "TGI", "setting": "NCI-H23 lung", "result": 315, "unit": "nM"}, {"measurement": "TGI", "setting": "OVCAR-5 ovarian", "result": 12600, "unit": "nM"}, {"measurement": "TGI", "setting": "HCC-2998 colon", "result": 569, "unit": "nM"}, {"measurement": "TGI", "setting": "SF-295 CNS", "result": 12000, "unit": "nM"}, {"measurement": "TGI", "setting": "SF-268 CNS", "result": 2130, "unit": "nM"}, {"measurement": "TGI", "setting": "NCI-H522 lung", "result": 310, "unit": "nM"}, {"measurement": "TGI", "setting": "OVCAR-3 ovarian", "result": 2110, "unit": "nM"}, {"measurement": "TGI", "setting": "MDA-N", "result": 254, "unit": "nM"}, {"measurement": "TGI", "setting": "SNB-75 CNS", "result": 719, "unit": "nM"}, {"measurement": "TGI", "setting": "HOP-92 NSCLC", "result": 791, "unit": "nM"}, {"measurement": "TGI", "setting": "CAKI-1 renal", "result": 599, "unit": "nM"}, {"measurement": "TGI", "setting": "HS 578T breast", "result": 841, "unit": "nM"}, {"measurement": "TGI", "setting": "HT29 colon", "result": 1390, "unit": "nM"}, {"measurement": "TGI", "setting": "MALME-3M melanoma", "result": 1020, "unit": "nM"}, {"measurement": "TGI", "setting": "HCT-15 colon", "result": 2620, "unit": "nM"}, {"measurement": "TGI", "setting": "PC-3 prostate", "result": 816, "unit": "nM"}, {"measurement": "TGI", "setting": "MCF7 breast", "result": 4750, "unit": "nM"}, {"measurement": "TGI", "setting": "HL-60(TB) leukemia", "result": 569, "unit": "nM"}, {"measurement": "TGI", "setting": "MDA-MB-435", "result": 538, "unit": "nM"}, {"measurement": "TGI", "setting": "NCI-H226 lung", "result": 892, "unit": "nM"}, {"measurement": "TGI", "setting": "SK-MEL-5 melanoma", "result": 594, "unit": "nM"}, {"measurement": "TGI", "setting": "HOP-62 NSCLC", "result": 1780, "unit": "nM"}, {"measurement": "TGI", "setting": "OVCAR-8 ovarian", "result": 3100, "unit": "nM"}, {"measurement": "TGI", "setting": "A498 renal", "result": 1350, "unit": "nM"}, {"measurement": "TGI", "setting": "RPMI-8226 leukemia", "result": 300, "unit": "nM"}, {"measurement": "TGI", "setting": "MDA-MB-231 breast", "result": 855, "unit": "nM"}, {"measurement": "TGI", "setting": "NCI/ADR-RES ovarian", "result": 3630, "unit": "nM"}, {"measurement": "TGI", "setting": "ACHN renal", "result": 3850, "unit": "nM"}, {"measurement": "TGI", "setting": "COLO 205 colon", "result": 247, "unit": "nM"}, {"measurement": "TGI", "setting": "K-562 leukemia", "result": 35.4, "unit": "nM"}]}]}
